The nature of data set [1]: Excitation and emission spectrum (fluorescence). It counts as physicochemical. From the text: FIG. 1. Excitation and emission spectrum of pyrenyloxy sulfonamide (Compound 4a)
FIG. 2. Excitation and emission spectrum of Cascade Blue
FIG. 3. Excitation and emission spectrum of fluorescein
(§1) The core structure of the improved, reactive, hydrophilic, uncharged fluorophores is a new class of pyrenyloxy sulfonamide compounds. […] The novelty of this invention involves the substantial improvement of the properties of Cascade Blue, a currently available blue-fluorescent dye. The high polarity of anionic sulfonate of Cascade Blue results in the membrane-impermeability which can only be used extracellularly, a major disadvantage for many desirable applications. […] And the high aqueous solubility of the pyrenyloxy sulfonamide is useful for biological and physiological application, allowing staining the cell surface which is negatively charged, and even more useful to enter the cell for intracellular detection. In addition, the Stokes shift of Cascade Blue is undesirably small (ca. 20 nm, FIG. 2). […] The Stokes shift of the compounds of this invention is a much more practical 44 nm (FIG. 1), a significant improvement in its utility as a tracer for biological applications. The molar extinction coefficient of the structure of the invention is slightly higher (3.1×10^4 cm^−1 M^−1 at λ423 nm) than that of Cascade Blue (2.9×10^4 cm^−1 M^−1 at λ410 nm), an additional advantage for increased sensitivity. Photostability of the dye (compound 6 in FIG. 6) was tested under the light exposure. The scans were overlaid up to 60 mins with 15 min interval. […] This resistance to photobleaching greatly enhances the utility of the dye for quantitative measurements and permits extended illumination time.
Obvious is the spectra region shorter than 500 nm which is particularly valuable to get away from interference where green fluorescent protein is present or, to carry out the applications requiring multiple dyes such as flow cytometry, DNA sequencing and multiparameter microscopy. […] This special feature increases the sensitivity of the fluorescence techniques where the emission signal can be maximized against the low background.

Data set [2] is described as follows: Molar extinction coefficient. It counts as physicochemical. The following applies: at λ410 nm.
Text: as §1, with “sensitivity.” for “sensitivity. Photostability of the dye (compound 6 in FIG. 6) was tested under the light exposure. The scans were overlaid up to 60 mins with 15 min interval.”

Cascade Blue [reference compound]: the Stokes shift result in data set [1] is given as “ca. 20 nm”. The same molecule yielded a molar extinction coefficient in data set [2] of 29000 cm⁻¹ M⁻¹.

As to `O=S(=O)(c1cc(OCCCO)c2ccc3c(S(=O)(=O)N4CCOCC4)cc(S(=O)(=O)N4CCOCC4)c4ccc1c2c34)N1CCOCC1` [Compound 4a, 8-(3′-hydroxypropyloxy)pyren-tris(morpholino)-1,3,6-trisulfonamide], in data set [1], the Stokes shift entry is listed as “ca. 44 nm”, the peak of emission came to 465 nm and the peak of excitation turned out to be 421 nm.

(Values after US9850383B2, “Uncharged pyrenyloxy sulfonamide dyes for conjugation with biomolecules” (Gene Tools, LLC, priority 2016, dated 2017).)
